# Literature values as cited in paper PMC6675714 (Cancer Medicine, 2019).
# Where two headings read alike, the source gives them in different places.
# Assays:
# advanced stages of CCRCC = details: chemo‐monotherapies; cited from earlier work
# Caki‐1 tumor = details: cited from earlier work; for T/C (tumor growth): same xenograft mice model (Caki‐1, NMRI:nu/nu)
# H‐Ras/Raf‐1 interaction = tested on: H‐Ras/Raf‐1 interaction; set-up: method as in PMID 28959398; details: cited from earlier work
# A431 tumor = tested on: A431 tumor; set-up: method as in PMID 28959398; details: A431 tumor‐bearing female BALB/cA.Cg‐Foxn1^nu/CrINarI; cited from earlier work
# [1] = Caki‐1 tumor‐bearing female NMRI:nu/nu mice
molecule,measurement,setting,value
O=c1[nH]cc(F)c(=O)[nH]1 [5‐FU],Response rate,advanced stages of CCRCC,~20%
same,Survival,advanced stages of CCRCC,15 months
CC(=O)OCC1OC([S][Au-][c]2n(Cc3ccccc3)c(-c3ccccc3)c(-c3ccccc3)[n+]2Cc2ccccc2)C(OC(C)=O)C(OC(C)=O)C1OC(C)=O (centres unmarked) [NHC‐AuSR],T/C (tumor growth),Caki‐1 tumor,47%
same,Side effects,Caki‐1 tumor; same xenograft mice model,no severe side effects
same,ki‐67 or CD31 markers,Caki‐1 tumor; same xenograft mice model,no decrease
[Cl][Au-][c]1n(Cc2ccccc2)c(-c2ccccc2)c(-c2ccccc2)[n+]1Cc1ccccc1 [NHC‐Au‐Cl],T/C (tumor growth),Caki‐1 tumor,47%
same,Side effects,Caki‐1 tumor; same xenograft mice model,no severe side effects
same,ki‐67 or CD31 markers,Caki‐1 tumor; same xenograft mice model,no decrease
CCN(CC)c1ccc(C[c-]2cccc2)cc1.CCN(CC)c1ccc(C[c-]2cccc2)cc1.[Cl][Ti+2][Cl] [Titanocene Y*],Side effects,Caki‐1 tumor; [1],no severe side effects
same,Reduction of proliferation marker ki‐67,Caki‐1 tumor; Caki‐1 xenograft,21%
same,Vascularization,Caki‐1 tumor; Caki‐1 xenograft,decreased vascularization
same,Weight loss,Caki‐1 tumor; Caki‐1 xenograft,dose‐dependent weight loss
COc1ccc(C[c-]2cccc2)cc1.COc1ccc(C[c-]2cccc2)cc1.[Cl][V+2][Cl] [Vanadocene Y],Side effects,Caki‐1 tumor; [1],no severe side effects
CCCCCOC(=O)Nc1nc(=O)n([C@@H]2O[C@H](C)[C@@H](O)[C@H]2O)cc1F [capecitabine],Response rate,advanced stages of CCRCC,~20%
same,Survival,advanced stages of CCRCC,15 months
[Ir(tpy)(dnbpy)],H‐Ras/Raf‐1 interaction,H‐Ras/Raf‐1 interaction,inhibiting
same,Tumor growth,A431 tumor,tumor growth inhibition
